Measured values published in patent US7998965B2, “Glutamate aggrecanase inhibitors” (Wyeth LLC, priority 2005, dated 2011).
pIC50: −log10 of the molar value. Where two headings read alike, the source gives them in different places.

Target: T1, purified recombinant human Aggrecanase-1 (rAgg1) (Homo sapiens, UniProt O75173)
T1 sequence (O75173 213-837): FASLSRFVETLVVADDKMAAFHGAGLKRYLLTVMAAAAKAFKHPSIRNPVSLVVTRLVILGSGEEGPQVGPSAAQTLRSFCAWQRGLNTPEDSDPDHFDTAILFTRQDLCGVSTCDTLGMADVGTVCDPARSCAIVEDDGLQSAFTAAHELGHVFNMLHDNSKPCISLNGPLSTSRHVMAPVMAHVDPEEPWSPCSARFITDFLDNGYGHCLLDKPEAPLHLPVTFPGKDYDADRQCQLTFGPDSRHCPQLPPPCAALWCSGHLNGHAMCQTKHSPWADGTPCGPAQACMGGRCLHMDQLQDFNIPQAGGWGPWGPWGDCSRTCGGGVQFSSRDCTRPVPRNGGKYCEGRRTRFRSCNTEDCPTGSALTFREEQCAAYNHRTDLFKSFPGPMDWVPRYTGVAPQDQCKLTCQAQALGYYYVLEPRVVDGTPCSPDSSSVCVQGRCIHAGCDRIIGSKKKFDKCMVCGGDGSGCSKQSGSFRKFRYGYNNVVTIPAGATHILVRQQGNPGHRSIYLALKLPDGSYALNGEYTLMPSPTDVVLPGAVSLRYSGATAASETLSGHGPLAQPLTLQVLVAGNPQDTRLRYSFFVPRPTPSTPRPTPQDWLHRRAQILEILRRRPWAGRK
Experiment: In vitro fluorescence screen for Aggrecanase-1 inhibitors
Format: biochemical
Details: for Agg1 % @ concentration: @ 7,500 (nM); for pIC50: read-out: Agg1 IC50

Row | pIC50 (Table 1) | SMILES | other results
1 |  | CCCCOc1ccc(-c2ccc(C(=O)N[C@@H](CCC(=O)O)C(=O)NCc3ccccc3)cc2)cc1 [Example 15B, N^1-benzyl-N^2-[(4′-butoxy-1,1′-biphenyl-4-yl)carbonyl]-L-α-glutamine] | Agg1 % @ concentration (Table 1): 67% @
2 |  | O=C(O)CC[C@H](NC(=O)c1ccc(-c2ccc(OCC3CCC3)cc2)cc1)C(=O)NCc1ccccc1 [Example 15C, N^1-benzyl-N^2-{[4′-(cyclobutylmethoxy)-1,1′-biphenyl-4-yl]carbonyl}-L-α-glutamine] | Agg1 % @ concentration (Table 1): 50% @
3 |  | O=C(O)CC[C@H](NC(=O)c1ccc(-c2ccc(OCC3CCCCC3)cc2)cc1)C(=O)NCc1ccccc1 [Example 15D, N^1-benzyl-N^2-{[4′-(cyclohexylmethoxy)-1,1′-biphenyl-4-yl]carbonyl}-L-α-glutamine] | Agg1 % @ concentration (Table 1): 86% @
4 | 6.22 | COc1cccc(COc2ccc(-c3ccc(C(=O)N[C@@H](CCC(=O)O)C(=O)NCc4ccccc4)cc3)cc2)c1 [Example 15F, N^1-benzyl-N^2-({4′-[(3-methoxybenzyl)oxy]-1,1′-biphenyl-4-yl}carbonyl)-L-α-glutamine] | 
5 | 5.66 | COc1cc(COc2ccc(-c3ccc(C(=O)N[C@@H](CCC(=O)O)C(=O)NCc4ccccc4)cc3)cc2)cc(OC)c1 [Example 15G, N^1-benzyl-N^2-({4′-[(3,5-dimethoxybenzyl)oxy]-1,1′-biphenyl-4-yl}carbonyl)-L-α-glutamine] | 
6 | 6.70 | O=C(O)CC[C@H](NC(=O)c1ccc(-c2ccc(OCc3ccc4ccccc4c3)cc2)cc1)C(=O)NCc1ccccc1 [Example 15H, N^1-benzyl-N^2-{[4′-(2-naphthylmethoxy)-1,1′-biphenyl-4-yl]carbonyl}-L-α-glutamine] | 
7 |  | COc1cc(C(=O)N[C@@H](CCC(=O)O)C(=O)NCc2ccccc2)cc(OC)c1-c1ccccc1 [Example 17AAA, N^1-benzyl-N^2-[(2,6-dimethoxy-1,1′-biphenyl-4-yl)carbonyl]-L-α-glutamine] | Agg1 IC50 (nM) (Table 1): no inh
8 | 6.05 | COc1ccc(-c2ccccc2)cc1NC(=O)[C@H](CCC(=O)O)NC(=O)c1ccc(-c2ccccc2)cc1 [Example 17BBB, N^2-(1,1′-biphenyl-4-ylcarbonyl)-N^1-(4-methoxy-1,1′-biphenyl-3-yl)-L-α-glutamine] | 
9 | 5.10 | O=C(O)CC[C@H](NC(=O)c1ccc(-c2ccncc2)cc1)C(=O)NCc1ccccc1 [Example 17VV, N^1-benzyl-N^2-(4-pyridin-4-ylbenzoyl)-L-α-glutamine] | 
10 |  | O=C(O)CC[C@H](NC(=O)c1cccc(-c2ccccc2)c1)C(=O)NCc1ccccc1 [Example 17WW, N^1-benzyl-N^2-(1,1′-biphenyl-3-ylcarbonyl)-L-α-glutamine] | Agg1 IC50 (nM) (Table 1): no inh
11 |  | O=C(O)CC[C@H](NC(=O)c1cccc(-c2cccs2)c1)C(=O)NCc1ccccc1 [Example 17XX, N^1-benzyl-N^2-(3-thien-2-ylbenzoyl)-L-α-glutamine] | Agg1 IC50 (nM) (Table 1): no inh
12 | 5.70 | O=C(O)CC[C@H](NC(=O)c1ccc(-c2ccccc2)cc1Cl)C(=O)NCc1ccccc1 [Example 17YY, N^1-benzyl-N^2-[(3-chloro-1,1′-biphenyl-4-yl)carbonyl]-L-α-glutamine] | 
13 | 6.70 | O=C(O)CC[C@H](NC(=O)c1ccc(-c2ccccc2)cc1F)C(=O)NCc1ccccc1 [Example 17ZZ, N^1-benzyl-N^2-[(3-fluoro-1,1′-biphenyl-4-yl)carbonyl]-L-α-glutamine] | 
14 |  | Cc1cccc(CNC(=O)[C@H](CCC(=O)O)NC(=O)c2ccc(Br)cc2)c1 [Example 18G, N^2-(4-bromobenzoyl)-N-(3-methylbenzyl)-L-α-glutamine] | pIC50 (Table 2): ~5.08
15 | ~4.66 | O=C(O)CC[C@H](NC(=O)c1ccc(-c2ccccc2)o1)C(=O)NCc1ccccc1 [Example 20, N^1-benzyl-N^2-(5-phenyl-2-furoyl)-L-α-glutamine] | 
16 | 5.12 to 5.60 | CCOc1cccc(-c2ccc(C(=O)N[C@@H](CCC(=O)O)C(=O)NCc3ccccc3)o2)c1 [Example 21A, N^1-benzyl-N^2-[5-(3-ethoxyphenyl)-2-furoyl]-L-α-glutamine] | 
17 | ~5.17 | Cc1cc(C)cc(-c2ccc(C(=O)N[C@@H](CCC(=O)O)C(=O)NCc3ccccc3)o2)c1 [Example 21B, N^1-benzyl-N^2-[5-(3,5-dimethylphenyl)-2-furoyl]-L-α-glutamine] | 

Row | pIC50 (Table 1) | SMILES | other results
18 |  | O=C(O)CC[C@H](NC(=O)c1ccc(-c2ccco2)o1)C(=O)NCc1ccccc1 [Example 21C, N^1-benzyl-N^2-(2,2′-bifuran-5-ylcarbonyl)-L-α-glutamine] | Agg1 IC50 (nM) (Table 1): no inh
19 |  | O=C(O)CC[C@H](NC(=O)c1ccc(-c2cccs2)o1)C(=O)NCc1ccccc1 [Example 21D, N^1-benzyl-N^2-(5-thien-2-yl-2-furoyl)-L-α-glutamine] | Agg1 IC50 (nM) (Table 1): no inh
20 | 6.00 | O=C(O)CC[C@H](NC(=O)c1ccc(-c2ccccc2)nc1)C(=O)NCc1ccccc1 [Example 22A, N^1-benzyl-N^2-[(6-phenylpyridin-3-yl)carbonyl]-L-α-glutamine] | 
21 | 6.70 | COc1cccc(CNC(=O)[C@H](CCC(=O)O)NC(=O)c2ccc(-c3ccccc3)nc2)c1 [Example 22B, N^1-(3-methoxybenzyl)-N^2-[(6-phenylpyridin-3-yl)carbonyl]-L-α-glutamine] | 
22 | < 4.30 | COc1cccc(CNC(=O)[C@H](CCC(=O)O)NC(=O)c2ccc(-c3ccccc3C)c(C)c2)c1 [Example 22C, N^2-[(2,2′-dimethyl-1,1′-biphenyl-4-yl)carbonyl]-N^1-(3-methoxybenzyl)-L-α-glutamine] | 
23 | < 5.22 | CC(=O)Nc1ccc(-c2ccc(C(=O)N[C@@H](CCC(=O)O)C(=O)NCc3ccccc3)cc2)cc1 [Example 23, N^2-{[4′-(acetylamino)-1,1′-biphenyl-4-yl]carbonyl}-N^1-benzyl-L-α-glutamine] | 
24 | 5.96 | O=C(O)CC[C@H](NC(=O)c1ccc(-c2ccc(NC(=O)c3ccco3)cc2)cc1)C(=O)NCc1ccccc1 [Example 24A, N^1-benzyl-N^2-{[4′-(2-furoylamino)-1,1′-biphenyl-4-yl]carbonyl}-L-α-glutamine] | 
25 | ~5.66 | O=C(O)CC[C@H](NC(=O)c1ccc(-c2ccc(NC(=O)c3ccc(F)cc3)cc2)cc1)C(=O)NCc1ccccc1 [Example 24B, N^1-benzyl-N^2-({4′-[(4-fluorobenzoyl)amino]1,1′-biphenyl-4-yl}carbonyl)-L-α-glutamine] | 
26 | ~6.52 | O=C(O)CC[C@H](NC(=O)c1ccc(-c2ccc(NC(=O)c3ccccc3)cc2)cc1)C(=O)NCc1ccccc1 [Example 24C, N^2-{[4′-(benzoylamino)-1,1′-biphenyl-4-yl]carbonyl}-N^1-benzyl-L-α-glutamine] | 
27 | 5.30 | O=C(O)CC[C@H](NC(=O)c1ccc(-c2ccc(NC(=O)Cc3ccccc3)cc2)cc1)C(=O)O [Example 26, N-({4′-[(Phenylacetyl)amino]1,1′-biphenyl-4-yl}carbonyl)-L-α-glutamic acid] | 
28 | 6.40 | Cc1c(C(=O)Nc2ccc(-c3ccc(C(=O)N[C@@H](CCC(=O)O)C(=O)O)cc3)cc2)oc2ccccc12 [Example 27, N-[(4′-{[(3-Methyl-1-benzofuran-2-yl)carbonyl]-amino}-1,1′-biphenyl-4-yl)carbonyl]-L-α-glutamic acid] | 
29 | 6.40 | O=C(O)CC[C@H](NC(=O)c1ccc(-c2ccc(NC(=O)c3ccco3)cc2)cc1)C(=O)O [Example 28, N-{[4′-(2-furoylamino)-1,1′-biphenyl-4-yl]carbonyl}-L-α-glutamic acid] | 
30 | 5.52 | CC(=O)Nc1ccc(-c2ccc(C(=O)N[C@@H](CCC(=O)O)C(=O)O)cc2)cc1 [Example 29, N-{[4′-(acetylamino)-1,1′-biphenyl-4-yl]carbonyl}-L-α-glutamic acid] | 
31 | 6.30 | O=C(O)CC[C@H](NC(=O)c1ccc(-c2ccc(NC(=O)c3ccccc3)cc2)cc1)C(=O)O [Example 30, N-{[4′-(benzoylamino)-1,1′-biphenyl-4-yl]carbonyl}-L-α-glutamic acid] | 
32 | 6.00 | O=C(O)CC[C@H](NC(=O)c1ccc(-c2ccc(NC(=O)c3cc4ccccc4o3)cc2)cc1)C(=O)O [Example 31, N-({4′-[(1-benzofuran-2-ylcarbonyl)amino]-1,1′-biphenyl-4-yl}carbonyl)-L-α-glutamic acid] | 
33 | > 7.52 | Cc1ccc(CNC(=O)[C@H](CCC(=O)NO)NC(=O)c2ccc(-c3ccccc3)cc2)cc1C [Example 33B, N^2-(1,1′-biphenyl-4-ylcarbonyl)-N^1-(3,4-dimethylbenzyl)-N^5-hydroxy-L-α-glutamamide] | 
34 |  | CC(C)(Cc1ccccc1)NC(=O)[C@H](CCC(=O)O)NC(=O)c1cccc(-c2cccs2)c1 [N-(1,1-dimethyl-2-phenylethyl)-N^2-[3-(2-thienyl)benzoyl]-L-α-glutamine] | pIC50 (Table 3): < 5.08

Row | SMILES | pIC50 (Table 1) | other results
35 | C=CCOc1ccc(-c2ccc(C(=O)N[C@@H](CCC(=O)O)C(=O)NCc3ccccc3)cc2)cc1 [Example 15E, N^2-{[4′-(allyloxy)-1,1′-biphenyl-4-yl]carbonyl}-N^1-benzyl-L-α-glutamine] | 5.46 | 
